The results in this text go back to PMC6968694 (Emerging Microbes & Infections, 2020).

The target of one series is T1, phBCCPPurT (Pyrococcus horikoshii, UniProt O58056).
T1 construct: gene purT
Nature of the series: biochemical. The settings on record: read-out: apparent Kd. In kind it is binding.

The series “SEC” concerns the molecule itself. Nature of the series: SEC.

T1 sequence (O58056 whole entry): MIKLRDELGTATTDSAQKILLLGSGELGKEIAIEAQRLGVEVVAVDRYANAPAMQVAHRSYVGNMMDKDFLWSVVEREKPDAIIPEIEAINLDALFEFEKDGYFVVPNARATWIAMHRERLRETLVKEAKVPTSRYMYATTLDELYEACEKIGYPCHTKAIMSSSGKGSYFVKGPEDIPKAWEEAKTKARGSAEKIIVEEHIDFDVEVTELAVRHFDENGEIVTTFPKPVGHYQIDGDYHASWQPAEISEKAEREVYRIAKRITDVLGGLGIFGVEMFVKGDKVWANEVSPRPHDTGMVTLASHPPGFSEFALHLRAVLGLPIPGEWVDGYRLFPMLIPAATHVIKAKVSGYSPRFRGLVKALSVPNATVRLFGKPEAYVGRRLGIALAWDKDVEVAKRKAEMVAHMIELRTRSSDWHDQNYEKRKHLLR

With `Nc1ncnc2c1ncn2[C@@H]1O[C@H](CO[P@](=O)(O)O[P@](=O)(O)O[P@@](=O)(O)S)[C@@H](O)[C@H]1O` [ATPγS], the Kd at phBCCPPurT amounted to 41.8 ± 7.21 µM.

B1: Glycinamide-RNase-transformylase T from Mycobacterium tuberculosis (enzyme)
chain: MIDGWTEEQHEPTVRHERPAAPQDVRRVMLLGSAEPSRELAIALQGLGAEVIAVDGYVGAPAHRIADQSVVVTMTDAEELTAVIRRLQPDFLVTVTAAVSVDALDAVEQADGECTELVPNARAVRCTADREGLRRLAADQLGLPTAPFWFVGSLGELQAVAVHAGFPLLVSPVAGVAGQGSSVVAGPNEVEPAWQRAAGHQVQPQTGGVSPRVCAESVVEIEFLVTMIVVCSQGPNGPLIEFCAPIGHRDADAGELESWQPQKLSTAALDAAKSIAARIVKALGGRGVFGVELMINGDEVYFADVTVCPAGSAWVTVRSQRLSVFELQARAILGLAVDTLMISPGAARVINPDHTAGRAAVGAAPPADALTGALGVPESDVVIFGRGLGVALATAPEVAIARERAREVASRLNVPDSRE
notes: also called MtbPurT; PurT
Turning to B1, the stoichiometry N – broadly, the number of molecules, sites or subunits per partner or assembly – in the series “SEC” is 2.
